Patent publication US10294202B2, “Pyrrolidinones as herbicides” (FMC Corporation, priority 2013, dated 2019)

What was measured:
crabgrass, large = test: Test A pre-/postemergence herbicide test; type: in vivo, Digitaria sanguinalis; details: for Crabgrass, Large plant response rating: Preemergence, visual rating on 0 to 100 scale (0 no effect, 100 complete control)
Summary of the method: (§1)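 Scoring was visual, relative to untreated controls, on a 0–100 scale after about 10 greenhouse days. Preemergence treatment used a directed soil spray over seeded loam/sand; postemergence treatment targeted one- to two-leaf plants of 2–10 cm.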

velvetleaf = test: Test A pre-/postemergence herbicide test; type: in vivo, Abutilon theophrasti; details: for Velvetleaf plant response rating: Preemergence, visual rating on 0 to 100 scale (0 no effect, 100 complete control)
Summary of the method: as §1

morningglory = test: Test A pre-/postemergence herbicide test; type: in vivo, Ipomoea spp.; details: for Morningglory plant response rating: Preemergence, visual rating on 0 to 100 scale (0 no effect, 100 complete control)
Summary of the method: as §1

sedge, umbrella = test: Test C flooded paddy test; type: in vivo, Cyperus difformis; details: Flood
Summary of the method: (§2)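 Visual injury scored against controls after 13 to 15 days in the greenhouse, using 0 (no effect) to 100 (complete control). Test compounds went straight into paddy water held 3 cm above the soil surface on 2-leaf-stage plants, with that flood depth maintained for the whole test.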

rice = test: Test C flooded paddy test; type: in vivo, Oryza sativa; details: Flood
Summary of the method: as §2

barnyardgrass = test: Test C flooded paddy test; type: in vivo, Echinochloa crus-galli; details: Flood
Summary of the method: as §2

kochia = test: Test A pre-/postemergence herbicide test; type: in vivo, Kochia scoparia
Summary of the method: as §1

ragweed = test: Test A pre-/postemergence herbicide test; type: in vivo, Ambrosia elatior
Summary of the method: as §1

ryegrass, Italian = test: Test A pre-/postemergence herbicide test; type: in vivo, Lolium multiflorum
Summary of the method: as §1

galium = test: Test A postemergence herbicide test; type: in vivo, Galium aparine
Summary of the method: (§3)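 Potted in loam soil/sand blend; postemergence application at 1–2 leaf stage (2–10 cm). Greenhouse ~10 d. Visual injury vs untreated, 0–100 scale; 100 = complete control.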

blackgrass = test: Test A postemergence herbicide test; type: in vivo, Alopecurus myosuroides
Summary of the method: as §3

[1] = Postemergence, 125 g ai/ha, 0 to 100 scale, 0 no effect, 100 complete control
[2] = Postemergence, 500 g ai/ha, 0 to 100 scale (0 no effect, 100 complete control)
[3] = preemergence, 500 g ai/ha, 0 to 100 scale
[4] = 62 g ai/ha, scale of 0 to 100 where 0 is no effect and 100 is complete control, 13 to 15 days
[5] = Postemergence, 125 g ai/ha, 0 to 100 scale, 0 is no effect, 100 is complete control
[6] = Preemergence, 125 g ai/ha, 0 to 100 scale where 0 is no effect and 100 is complete control
[7] = preemergence, 500 g ai/ha, 0 to 100 scale, 0 is no effect and 100 is complete control
[8] = Postemergence, 125 g ai/ha, visual rating on 0 to 100 scale (0 no effect, 100 complete control), approx. 10 days
[9] = 125 g ai/ha, 0 to 100 scale, 0 is no effect, 100 is complete control
[10] = 500 g ai/ha, 0 to 100 scale (0 no effect, 100 complete control)
[11] = Preemergence, 500 g ai/ha, visual rating on 0 to 100 scale (0 no effect, 100 complete control)
[12] = 125 g ai/ha, visual rating on 0 to 100 scale (0 no effect, 100 complete control), approx. 10 days
[13] = 125 g ai/ha, visual rating, 0 to 100 scale, 0 no effect, 100 complete control, approximately 10 days, preemergence

SMILES	Plant response rating, Crabgrass, Large (crabgrass, large; [1])	Plant response rating, Crabgrass, Large (crabgrass, large; [2])	Crabgrass, Large plant response rating (crabgrass, large; 125 g ai/ha)	Plant response rating, Crabgrass, Large (crabgrass, large; [3])	Plant response rating, Kochia (kochia; [2])	Plant response rating, Kochia (kochia; [6])	Plant response rating, Ragweed (ragweed; [8])	Plant response rating, Ragweed (ragweed; [2])	Plant response rating, Ragweed (ragweed; [6])	Plant response rating, Ryegrass, Italian (ryegrass, Italian; [8])	Plant response rating, Ryegrass, Italian (ryegrass, Italian; [2])	Plant response rating, Ryegrass, Italian (ryegrass, Italian; [6])	Plant response rating, Galium (galium; [10])	Plant response rating, Blackgrass (blackgrass; [10])	Plant response rating, Kochia (kochia; [8])	Kochia plant response rating (kochia; [11])	Ragweed plant response rating (ragweed; [11])	Ryegrass, Italian plant response rating (ryegrass, Italian; [11])	Plant response rating, Galium (galium; [12])	Plant response rating, Blackgrass (blackgrass; [12])	further results
O=C1NCC(c2ccc(F)c(F)c2)C1C(=O)Nc1ccccc1C(F)(F)F (racemic) [Compound 6]	60	80	80	90	–	–	–	–	–	–	–	–	–	–	–	–	–	–	–	–	Plant response rating, Velvetleaf (velvetleaf; [2]): 10; Velvetleaf plant response rating (velvetleaf; 125 g ai/ha): 0; Plant response rating, Velvetleaf (velvetleaf; [3]): 0; Plant response rating, Morningglory (morningglory; [2]): 0; Morningglory plant response rating (morningglory; 125 g ai/ha): 0; Plant response rating, Morningglory (morningglory; [3]): 0
O=C1NCC(c2ccc(Cl)c(Cl)c2)C1C(=O)Nc1ccccc1F (racemic) [Compound 14]	80	90	90	90	–	–	–	–	–	–	–	–	–	–	–	–	–	–	–	–	Plant response rating, Velvetleaf (velvetleaf; [1]): 0; Plant response rating, Velvetleaf (velvetleaf; [2]): 90; Velvetleaf plant response rating (velvetleaf; 125 g ai/ha): 0; Plant response rating, Velvetleaf (velvetleaf; [3]): 0; Plant response rating, Sedge, Umbrella (sedge, umbrella; [4]): 0; Plant response rating, Sedge, Umbrella (sedge, umbrella; 250 g ai/ha, scale 0 to 100): 20; Plant response rating, Morningglory (morningglory; [1]): 0; Plant response rating, Morningglory (morningglory; [2]): 0; Morningglory plant response rating (morningglory; 125 g ai/ha): 0; Plant response rating, Morningglory (morningglory; [3]): 0; Plant response rating, Rice (rice; [4]): 0; Plant response rating, Rice (rice; 250 g ai/ha, scale 0 to 100): 0; Plant response rating, Barnyardgrass (barnyardgrass; [4]): 0; Plant response rating, Barnyardgrass (barnyardgrass; 250 g ai/ha, scale 0 to 100): 0
O=C1NCC(c2cc(F)cc(F)c2)C1C(=O)Nc1ccccc1Cl (racemic) [Compound 280]	–	–	–	–	0	0	0	0	0	0	0	0	0	0	–	–	–	–	–	–	Plant response rating, Kochia (kochia; [5]): 0; Plant response rating, Kochia (kochia; [7]): 0; Plant response rating, Ragweed (ragweed; [7]): 0; Plant response rating, Ryegrass, Italian (ryegrass, Italian; [7]): 0; Plant response rating, Galium (galium; [9]): 0; Plant response rating, Blackgrass (blackgrass; [9]): 0
O=C1NCC(c2ccc(OC(F)F)cc2)C1C(=O)Nc1cccc(F)c1F (racemic) [Compound 350]	–	–	–	–	–	80	0	–	30	0	–	0	–	50	70	80	30	0	60	50	–
O=C1NCC(c2cccc(OC(F)(F)F)c2)C1C(=O)Nc1ccccc1F (stereo not drawn) [Compound 69]	70	90	90	90	–	–	–	–	–	–	–	–	–	–	–	–	–	–	–	–	Plant response rating, Velvetleaf (velvetleaf; [1]): 20; Plant response rating, Velvetleaf (velvetleaf; [2]): 30; Velvetleaf plant response rating (velvetleaf; 125 g ai/ha): 0; Plant response rating, Velvetleaf (velvetleaf; [3]): 0; Plant response rating, Morningglory (morningglory; [1]): 0; Plant response rating, Morningglory (morningglory; [2]): 0; Morningglory plant response rating (morningglory; 125 g ai/ha): 0; Plant response rating, Morningglory (morningglory; [3]): 0
O=C1NCC(c2ccc(Cl)cc2)C1C(=O)Nc1cccc(F)c1F (stereo not drawn) [Compound 218]	–	–	–	–	–	–	–	–	–	–	–	–	–	–	–	–	–	–	–	–	Plant response rating, Kochia (kochia; [13]): 30; Plant response rating, Kochia (kochia; [5]): 50; Kochia plant response rating (0 to 100 scale, 0 is no effect, 100 is complete control) (kochia; Postemergence, 500 g ai/ha): 60; Plant response rating, Kochia (kochia; [7]): 70; Plant response rating, Ragweed (ragweed; [13]): 0; Plant response rating, Ragweed (ragweed; [5]): 0; Ragweed plant response rating (0 to 100 scale, 0 is no effect, 100 is complete control) (ragweed; Postemergence, 500 g ai/ha): 50; Plant response rating, Ragweed (ragweed; [7]): 50; Plant response rating, Ryegrass, Italian (ryegrass, Italian; [13]): 40; Plant response rating, Ryegrass, Italian (ryegrass, Italian; [5]): 0; Ryegrass, Italian plant response rating (0 to 100 scale, 0 is no effect, 100 is complete control) (ryegrass, Italian; Postemergence, 500 g ai/ha): 30; Plant response rating, Ryegrass, Italian (ryegrass, Italian; [7]): 60; Plant response rating, Galium (galium; [9]): 40; Galium plant response rating (0 to 100 scale, 0 is no effect, 100 is complete control) (galium; 500 g ai/ha): 60; Plant response rating, Blackgrass (blackgrass; [9]): 20; Blackgrass plant response rating (0 to 100 scale, 0 is no effect, 100 is complete control) (blackgrass; 500 g ai/ha): 40
O=C1NCC(c2ccc(C(F)(F)F)cc2)C1C(=O)Nc1ccccc1F (stereo not drawn) [Compound 231]	–	–	–	–	–	–	–	–	–	–	–	–	–	–	–	–	–	–	–	–	Plant response rating, Kochia (kochia; [13]): 70; Plant response rating, Kochia (kochia; [5]): 70; Kochia plant response rating (0 to 100 scale, 0 is no effect, 100 is complete control) (kochia; Postemergence, 500 g ai/ha): 90; Plant response rating, Kochia (kochia; [7]): 90; Plant response rating, Ragweed (ragweed; [13]): 70; Plant response rating, Ragweed (ragweed; [5]): 20; Ragweed plant response rating (0 to 100 scale, 0 is no effect, 100 is complete control) (ragweed; Postemergence, 500 g ai/ha): 50; Plant response rating, Ragweed (ragweed; [7]): 90; Plant response rating, Ryegrass, Italian (ryegrass, Italian; [13]): 40; Plant response rating, Ryegrass, Italian (ryegrass, Italian; [5]): 20; Ryegrass, Italian plant response rating (0 to 100 scale, 0 is no effect, 100 is complete control) (ryegrass, Italian; Postemergence, 500 g ai/ha): 40; Plant response rating, Ryegrass, Italian (ryegrass, Italian; [7]): 60; Plant response rating, Galium (galium; [9]): 40; Galium plant response rating (0 to 100 scale, 0 is no effect, 100 is complete control) (galium; 500 g ai/ha): 50; Plant response rating, Blackgrass (blackgrass; [9]): 40; Blackgrass plant response rating (0 to 100 scale, 0 is no effect, 100 is complete control) (blackgrass; 500 g ai/ha): 60
CN1CC(c2cccc(C(F)(F)F)c2)C(C(=O)Nc2cccc(F)c2F)C1=O (stereo not drawn) [Compound 305]	–	–	–	–	70	70	0	0	30	60	70	70	70	70	30	70	50	90	50	60	–
CN1CC(c2ccc(C(F)(F)F)cc2)C(C(=O)Nc2cccc(F)c2F)C1=O (stereo not drawn) [Compound 306]	–	–	–	–	70	70	20	40	–	50	60	40	70	60	30	80	80	80	60	50	–
CC(C)c1cccc(C2CNC(=O)C2C(=O)Nc2cccc(F)c2F)c1 (stereo not drawn) [Compound 319]	–	–	–	–	50	60	20	40	30	30	50	30	50	50	30	80	40	60	30	40	–
